Laboratory results as given in patent publication US10526323B2, “Indazole and azaindazole substituted compounds as mGluR4 allosteric potentiators, compositions, and methods of treating neurological dysfunction” (Vanderbilt University, priority 2015, dated 2020).

Molecular target: mGluR4 (UniProt Q14833)
Test: mGluR4 potentiation assay: increase in response to an EC20 concentration of agonist (species not given)
Assay type: cell-based
Conditions: EC50 for potentiation of mGluR4; table does not state human or rat
Protocol: The disclosed compounds and compositions can be evaluated for their ability to act as a potentiator of metabotropic glutamate receptor activity, in particular mGluR4 activity, by any suitable known methodology known in the art. For example, Chinese Hamster Ovary (CHO) cells transfected with human mGluR4 or […] co-transfected with rat mGluR4 and the G-protein regulated Inwardly Rectifying Potassium channel (GIRK) were plated in clear bottom assay plates for assay in a Hamamatsu FDSS Fluorometric Plate Reader. The cells were loaded with either a Ca2+-sensitive fluorescent dye or the thallium responsive dye and the plates were washed and placed into a suitable kinetic plate reader. For human mGluR4 assays, a fluorescence baseline was established for 3-5 seconds, the disclosed compounds were then added to the cells, and the response in cells was measured. Approximately two and a half minutes later, a concentration of mGluR4 orthosteric agonist (e.g. glutamate or L-AP4) eliciting approximately 20% (EC20) of the maximal agonist response was added to the cells, and the response was measured. Two minutes later, a concentration of mGluR4 agonist (e.g. glutamate or L-AP4) eliciting 80% (EC80) of the maximal agonist response was added to the cells, and the response was measured. For rat mGluR4/GIRK experiments, a baseline was established for approximately five seconds, disclosed compounds were added, and either an EC20 or EC80 concentration of agonist was added approximately two and one half minutes later. Potentiation of the agonist response of mGluR4 by the disclosed compounds was observed as an increase in response to the EC20 concentration of agonist in the presence of compound compared to the response to agonist in the absence of compound. Similarly, antagonism of the agonist response of mGluR4 by the disclosed compounds was observed as a decrease in response to the EC80 concentration of agonist in the presence of compound compared to the response to agonist in the absence of compound.
The above described assay operated in two modes. In the first mode, a range of concentrations of the disclosed compounds are added to cells, followed by a single fixed concentration of agonist. If the compound acts as a potentiator, an EC50 value for potentiation and a maximum extent of potentiation by the compound at this concentration of agonist is determined by non-linear curve fitting. If the compound acts as a noncompetitive antagonist, an IC50 value is determined by non-linear curve fitting. In the second mode, several fixed concentrations of the disclosed compounds are added to various wells on a plate, followed by a range in concentrations of agonist for each concentration of disclosed compound. The EC50 values for the agonist at each concentration of compound are determined by non-linear curve fitting. A decrease in the EC50 value of the agonist with increasing concentrations of the sample compound (a leftward shift of the agonist concentration-response curve) is an indication of the degree of mGluR4 potentiation at a given concentration of the sample compound. A decrease in the maximal response of the agonist with increasing concentrations of the sample compounds, with or without a rightward shift in agonist potency, is an indication of the degree of noncompetitive antagonism at mGluR4. The second mode also indicates whether the sample compounds also affect the maximum response to mGluR4 to agonists.
These compounds are positive allosteric modulators (potentiators) of human and rat mGluR4 and were selective for mGluR4 compared to the other seven subtypes of metabotropic glutamate receptors.

| SMILES | EC50 [nM] |
| --- | --- |
| Cc1ccccc1Cc1nn(C)c2cc(Nc3n[nH]c4nccnc34)ccc12 [Example 49, N-(1-methyl-3-(2-methylbenzyl)-1H-indazol-6-yl)-1H-pyrazolo[3,4-b]pyrazin-3-amine] | 4600 |
| Cn1nc(OCC2(C)COC2)c2ccc(Nc3n[nH]c4cccnc34)cc21 [Example 194, N-[1-methyl-3-[(3-methyloxetan-3-yl)methoxy]indazol-6-yl]-1H-pyrazolo[4,3-b]pyridin-3-amine] | 146 |
| Cc1cc(Cn2ncc3cc(Nc4n[nH]c5cccnc45)ccc32)no1 [Example 103, N-(1-((5-methylisoxazol-3-yl)methyl)-1H-indazol-5-yl)-1H-pyrazolo[4,3-b]pyridin-3-amine] | 125 |
| Cc1nn(CC2CCCC2)c2ccc(Nc3n[nH]c4cccnc34)cc12 [Example 106, N-(1-(cyclopentylmethyl)-3-methyl-1H-indazol-5-yl)-1H-pyrazolo[4,3-b]pyridin-3-amine] | 145 |
| Cn1nc(C(=O)N2CCC(C(N)=O)CC2)c2ccc(Nc3n[nH]c4cccnc34)cc21 [Example 161, 1-[1-methyl-6-(1H-pyrazolo[4,3-b]pyridin-3-ylamino)indazole-3-carbonyl]piperidine-4-carboxamide] | > 10000 |
| Cc1nn(CC2CC2)c2ccc(Nc3n[nH]c4cccnc34)cc12 [Example 111, N-(1-(cyclopropylmethyl)-3-methyl-1H-indazol-5-yl)-1H-pyrazolo[4,3-b]pyridin-3-amine] | 36 |
| CC(c1nn(C)c2cc(Nc3n[nH]c4cccnc34)ccc12)C(F)(F)F (stereo not drawn) [Example 46, N-(1-methyl-3-(1,1,1-trifluoropropan-2-yl)-1H-indazol-6-yl)-1H-pyrazolo[4,3-b]pyridin-3-amine] | 215 |
| O=C(O)Cn1nc(Cl)c2cc(Nc3n[nH]c4cccnc34)ccc21 [Example 278, 2-(5-((1H-pyrazolo[4,3-b]pyridin-3-yl)amino)-3-chloro-1H-indazol-1-yl)acetic acid] | 1560 |
| C=C(c1nn(C)c2cc(Nc3n[nH]c4cccnc34)ccc12)C(F)(F)F [Example 40, N-(1-methyl-3-(3,3,3-trifluoroprop-1-en-2-yl)-1H-indazol-6-yl)-1H-pyrazolo[4,3-b]pyridin-3-amine] | 147 |
| Clc1cc(Nc2n[nH]c3cccnc23)cc2cn(CC3CCC3)nc12 [Example 66, N-(7-chloro-2-(cyclobutylmethyl)-2H-indazol-5-yl)-1H-pyrazolo[4,3-b]pyridin-3-amine] | 117 |
| Cc1cc(Nc2n[nH]c3nccnc23)cc2c1cnn2C [Example 51, N-(1,4-dimethyl-1H-indazol-6-yl)-1H-pyrazolo[3,4-b]pyrazin-3-amine] | 150 |
| CC1=NOC(Cn2nc(C)c3cc(Nc4n[nH]c5cccnc45)ccc32)C1 (stereo not drawn) [Example 121, N-(3-methyl-1-((3-methyl-4,5-dihydroisoxazol-5-yl)methyl)-1H-indazol-5-yl)-1H-pyrazolo[4,3-b]pyridin-3-amine] | 377 |
| Cc1cc(Cn2nc(C)c3cc(Nc4n[nH]c5ncccc45)ccc32)no1 [Example 77, N-(3-methyl-1-((5-methylisoxazol-3-yl)methyl)-1H-indazol-5-yl)-1H-pyrazolo[3,4-b]pyridin-3-amine] | 157 |
| CC(C)n1nc(C2CC2)c2ccc(Nc3n[nH]c4cccnc34)cc21 [Example 16, N-(3-cyclopropyl-1-isopropyl-1H-indazol-6-yl)-1H-pyrazolo[4,3-b]pyridin-3-amine] | > 10000 |
| CCC(C)n1nc2ccc(Nc3n[nH]c4cccnc34)cc2c1C (stereo not drawn) [Example 105, N-(2-(sec-butyl)-3-methyl-2H-indazol-5-yl)-1H-pyrazolo[4,3-b]pyridin-3-amine] | > 10000 |
| Cc1nn(CC2CC(C3CC3)=NO2)c2ccc(Nc3n[nH]c4cccnc34)cc12 (stereo not drawn) [Example 100, N-(1-((3-cyclopropyl-4,5-dihydroisoxazol-5-yl)methyl)-3-methyl-1H-indazol-5-yl)-1H-pyrazolo[4,3-b]pyridin-3-amine] | 258 |
| Clc1n[nH]c2ccc(Nc3n[nH]c4cccnc34)cc12 [Example 140, N-(3-chloro-1H-indazol-5-yl)-1H-pyrazolo[4,3-b]pyridin-3-amine] | 455 |
| Clc1nn(CC2CCC2)c2ccc(Nc3n[nH]c4cccnc34)cc12 [Example 285, N-(3-chloro-1-(cyclobutylmethyl)-1H-indazol-5-yl)-1H-pyrazolo[4,3-b]pyridin-3-amine] | 1980 |
| [2H]C([2H])(C)n1nc(C)c2cc(Nc3n[nH]c4nccnc34)ccc21 [Example 127, N-(1-(ethyl-1,1-d2)-3-methyl-1H-indazol-5-yl)-1H-pyrazolo[3,4-b]pyrazin-3-amine] | 154 |
| Cn1nc(C(=O)NC2CCC2)c2ccc(Nc3n[nH]c4cccnc34)cc21 [Example 176, N-cyclobutyl-1-methyl-6-(1H-pyrazolo[4,3-b]pyridin-3-ylamino)indazole-3-carboxamide] | 653 |
| Cc1nn(CC(C)(C)C)c2ccc(Nc3n[nH]c4cccnc34)cc12 [Example 119, N-(3-methyl-1-neopentyl-1H-indazol-5-yl)-1H-pyrazolo[4,3-b]pyridin-3-amine] | 295 |
| Cc1nn(Cc2ccc3ccccc3n2)c2ccc(Nc3n[nH]c4cccnc34)cc12 [Example 125, N-(3-methyl-1-(quinolin-2-ylmethyl)-1H-indazol-5-yl)-1H-pyrazolo[4,3-b]pyridin-3-amine] | 1530 |
| Cc1nn(C2CCCC2)c2ncc(Nc3n[nH]c4cccnc34)cc12 [Example 254, 1-cyclopentyl-3-methyl-N-(1H-pyrazolo[4,3-b]pyridin-3-yl)pyrazolo[3,4-b]pyridin-5-amine] | > 10000 |
| COc1cc(Nc2n[nH]c3cccnc23)cc2c1cnn2C [Example 52, N-(4-methoxy-1-methyl-1H-indazol-6-yl)-1H-pyrazolo[4,3-b]pyridin-3-amine] | 718 |
| Cc1cc(Nc2n[nH]c3cccnc23)cc2c1cnn2C [Example 50, N-(1,4-dimethyl-1H-indazol-6-yl)-1H-pyrazolo[4,3-b]pyridin-3-amine] | 323 |
| Cn1nc(C2(C)CC2)c2ccc(Nc3n[nH]c4ncccc34)cc21 [Example 30, N-(1-methyl-3-(1-methylcyclopropyl)-1H-indazol-6-yl)-1H-pyrazolo[3,4-b]pyridin-3-amine] | 129 |
| Cc1cc(Cn2ncc3cc(Nc4n[nH]c5cccnc45)cc(Cl)c32)no1 [Example 82, N-(7-chloro-1-((5-methylisoxazol-3-yl)methyl)-1H-indazol-5-yl)-1H-pyrazolo[4,3-b]pyridin-3-amine] | 136 |
| Cn1nc(Oc2cccc(C#N)n2)c2ccc(Nc3n[nH]c4cccnc34)cc21 [Example 231, 6-((6-((1H-pyrazolo[4,3-b]pyridin-3-yl)amino)-1-methyl-1H-indazol-3-yl)oxy)picolinonitrile] | 119 |
| [2H]C([2H])([2H])n1nc(Cl)c2cc(Nc3n[nH]c4cccnc34)ccc21 [Example 282, N-(3-chloro-1-(methyl-d3)-1H-indazol-5-yl)-1H-pyrazolo[4,3-b]pyridin-3-amine] | > 10000 |
| [2H]C([2H])([2H])n1nc(C2CC2)c2ccc(Nc3n[nH]c4cccnc34)cc21 [Example 23, N-(3-cyclopropyl-1-(methyl-d3)-1H-indazol-6-yl)-1H-pyrazolo[4,3-b]pyridin-3-amine] | 36 |
